Measured values: patent US20050032822A1, “Dithiocarbamate derivatives and their use as antibacterial agents” (priority 2001, published 2005)
≈ marks a conversion by molar mass, not a printed value.

Columns and labels:
Assay type in all cases: cell-based
Conditions in all cases: Mueller-Hinton broth
[1] = system: Mycobacterium smegmatis SG 987; assay: MIC, micro broth dilution, M. smegmatis SG 987
[2] = system: multiresistent staphylococci (MRSA) strain 994/93; assay: MIC, micro broth dilution, MRSA 994/93
M aureum SB66 = assay: MIC, micro broth dilution, M. aureum SB66
M. vaccae IMET 1010670 = assay: MIC, micro broth dilution, M. vaccae IMET 10670
[3] = system: multiresistent staphylococci (MRSA) strain 134/93; assay: MIC, micro broth dilution, MRSA 134/93
M. fortuitum B = assay: MIC, micro broth dilution, M. fortuitum B

| Compound | minimal inhibitory concentrations MIC, SG 987 [1] | minimal inhibitory concentrations MIC, 994/93 [2] | minimal inhibitory concentrations MIC, SB 66 (M aureum SB66) | minimal inhibitory concentrations MIC, 10670 (M. vaccae IMET 1010670) | minimal inhibitory concentrations MIC, 134/93 [3] | minimal inhibitory concentrations MIC, M. fort. (M. fortuitum B) |
| --- | --- | --- | --- | --- | --- | --- |
| 4-isopropylamino-6-diethyldithiocarbamoyl-5-nitropyrimidine [Subst. Nr. 1] | 12.5 µg/mL | 25 µg/mL | 25 µg/mL | 3.12 µg/mL | 3.12 µg/mL | 25 µg/mL |
| CCN(CC)C(=S)Sc1ncnc(NC2CC2)c1[N+](=O)[O-] [Subst. Nr. 2, 4-cyclopropylamino-6-diethyldithiocarbamoyl-5-nitropyrimidine] | 6.25 µg/mL (≈ 19.1 µM) | 3.12 µg/mL (≈ 9.53 µM) | 12.5 µg/mL (≈ 38.2 µM) | 3.12 µg/mL (≈ 9.53 µM) | 1.56 µg/mL (≈ 4.76 µM) | 6.25 µg/mL (≈ 19.1 µM) |
| CCN(CC)C(=S)Sc1c(C#N)cc([N+](=O)[O-])cc1[N+](=O)[O-] [Subst. Nr. 3, 3,5-dinitro-2-diethyldithiocarbamoylbenzonitril] | 12.5 µg/mL (≈ 36.7 µM) | 6.25 µg/mL (≈ 18.4 µM) | 12.5 µg/mL (≈ 36.7 µM) | 3.12 µg/mL (≈ 9.17 µM) | 3.12 µg/mL (≈ 9.17 µM) | 6.25 µg/mL (≈ 18.4 µM) |
| CCN(CC)C(=S)Sc1ncnc(NC)c1[N+](=O)[O-] [Subst. Nr. 4, 4-methylamino-6-diethyldithiocarbamoyl-5-nitropyrimidine] | 6.25 µg/mL (≈ 20.7 µM) | 1.56 µg/mL (≈ 5.18 µM) | 6.24 µg/mL (≈ 20.7 µM) | 1.56 µg/mL (≈ 5.18 µM) | 0.78 µg/mL (≈ 2.59 µM) | 6.25 µg/mL (≈ 20.7 µM) |
| CCN(CC)C(=S)Sc1ncnc(N(C)O)c1[N+](=O)[O-] [Subst. Nr. 5, 4-methylhydroxyamino-6-diethyldithiocarbamoyl-5-nitropyrimidine] | 6.25 µg/mL (≈ 19.7 µM) | 3.12 µg/mL (≈ 9.83 µM) | 12.5 µg/mL (≈ 39.4 µM) | 3.12 µg/mL (≈ 9.83 µM) | 1.56 µg/mL (≈ 4.91 µM) | 6.25 µg/mL (≈ 19.7 µM) |
| CCOc1nc(C)nc(SC(=S)N(CC)CC)c1[N+](=O)[O-] [Subst. Nr. 6, 4-ethoxy-2-methyl-6-diethyldithiocarbamoyl-5-nitropyrimidine] | 12.5 µg/mL (≈ 37.8 µM) | 3.12 µg/mL (≈ 9.44 µM) | 12.5 µg/mL (≈ 37.8 µM) | 3.12 µg/mL (≈ 9.44 µM) | 3.12 µg/mL (≈ 9.44 µM) | 12.5 µg/mL (≈ 37.8 µM) |
| CNc1ncnc(SC(=S)N(C)C)c1[N+](=O)[O-] [Subst. Nr. 7, 4-methylamino-6-dimethyldithiocarbamoyl-5-nitropyrimidine] | 12.5 µg/mL (≈ 45.7 µM) | 3.12 µg/mL (≈ 11.4 µM) | 6.25 µg/mL (≈ 22.9 µM) | 3.12 µg/mL (≈ 11.4 µM) | 1.56 µg/mL (≈ 5.71 µM) | 6.25 µg/mL (≈ 22.9 µM) |
| CN(C)C(=S)Sc1ncnc(N(C)C)c1[N+](=O)[O-] [Subst. Nr. 8, 4-dimethylamino-6-dimethyldithiocarbamoyl-5-nitropyrimidine] | 12.5 µg/mL (≈ 43.5 µM) | 6.52 µg/mL (≈ 22.7 µM) | 6.25 µg/mL (≈ 21.7 µM) | 3.12 µg/mL (≈ 10.9 µM) | 3.12 µg/mL (≈ 10.9 µM) | 12.5 µg/mL (≈ 43.5 µM) |
| CN(C)C(=S)Sc1c(C#N)cc([N+](=O)[O-])cc1[N+](=O)[O-] [Subst. Nr. 9, 3,5-dinitro-2-dimethyldithiocarbamoylbenzonitrile] | 3.12 µg/mL (≈ 9.99 µM) | 0.4 µg/mL (≈ 1.28 µM) | 1.56 µg/mL (≈ 4.99 µM) | 3.12 µg/mL (≈ 9.99 µM) | 0.4 µg/mL (≈ 1.28 µM) | 6.25 µg/mL (≈ 20 µM) |
| CCOc1nc(C)nc(SC(=S)N2CCCC2)c1[N+](=O)[O-] [Subst. Nr. 10, 4-ethoxy-2-methyl-6-tetramethylenedithiocarbamoyl-5-nitropyrimidine] | 12.5 µg/mL (≈ 38.1 µM) | 0.8 µg/mL (≈ 2.44 µM) | 25 µg/mL (≈ 76.1 µM) | 12.5 µg/mL (≈ 38.1 µM) | 3.12 µg/mL (≈ 9.5 µM) | 50 µg/mL (≈ 152 µM) |
| CCCOc1ncnc(SC(=S)N(C)C)c1[N+](=O)[O-] [Subst. Nr. 11, 4-propoxy-6-dimethyldithiocarbamoyl-5-nitropyrimidine] | 6.25 µg/mL (≈ 20.7 µM) | 0.8 µg/mL (≈ 2.65 µM) | 1.56 µg/mL (≈ 5.16 µM) | 0.8 µg/mL (≈ 2.65 µM) | 0.8 µg/mL (≈ 2.65 µM) | 1.56 µg/mL (≈ 5.16 µM) |
| CNc1ncnc(SC(=S)N2CCCC2)c1[N+](=O)[O-] [Subst. Nr. 12, 4-methylamino-6-tetramethylenedithiocarbamoyl-5-nitropyrimidine] | 3.12 µg/mL (≈ 10.4 µM) |  | 1.56 µg/mL (≈ 5.21 µM) | 0.8 µg/mL (≈ 2.67 µM) |  | 0.8 µg/mL (≈ 2.67 µM) |
| CN(C)c1ncnc(SC(=S)N2CCCC2)c1[N+](=O)[O-] [Subst. Nr. 13, 4-dimethylamino-6-tetramethylenedithiocarbamoyl-5-nitropyrimidine] | 3.12 µg/mL (≈ 9.96 µM) | 1.56 µg/mL (≈ 4.98 µM) | 3.12 µg/mL (≈ 9.96 µM) | 1.56 µg/mL (≈ 4.98 µM) | 3.12 µg/mL (≈ 9.96 µM) | 1.56 µg/mL (≈ 4.98 µM) |
| COc1ncnc(SC(=S)N(C)C)c1[N+](=O)[O-] [Subst. Nr. 14, 4-methoxy-6-dimethyldithiocarbamoyl-5-nitropyrimidine] | 3.12 µg/mL (≈ 11.4 µM) | 3.12 µg/mL (≈ 11.4 µM) | 0.8 µg/mL (≈ 2.92 µM) | 3.12 µg/mL (≈ 11.4 µM) | 6.25 µg/mL (≈ 22.8 µM) | 0.8 µg/mL (≈ 2.92 µM) |
| COc1ncnc(SC(=S)N2CCCC2)c1[N+](=O)[O-] [Subst. Nr. 15, 4-methoxy-6-tetramethylenedithiocarbamoyl-5-nitropyrimidine] | 3.12 µg/mL (≈ 10.4 µM) | 3.12 µg/mL (≈ 10.4 µM) | 1.56 µg/mL (≈ 5.19 µM) | 0.8 µg/mL (≈ 2.66 µM) | 3.12 µg/mL (≈ 10.4 µM) | 1.56 µg/mL (≈ 5.19 µM) |
| NC(=O)c1cc([N+](=O)[O-])cc([N+](=O)[O-])c1SC(=S)N1CCCCCC1 [Subst. Nr. 16, 3,5-dinitro-2-hexamethylenedithiocarbamoylbenzamide] | 6.25 µg/mL (≈ 16.3 µM) | 12.5 µg/mL (≈ 32.5 µM) | 6.25 µg/mL (≈ 16.3 µM) | 0.1 µg/mL (≈ 0.26 µM) | 6.25 µg/mL (≈ 16.3 µM) | 0.8 µg/mL (≈ 2.08 µM) |
| NC(=O)c1cc([N+](=O)[O-])cc([N+](=O)[O-])c1SC(=S)N1CCCC1 [Subst. Nr. 17, 3,5-dinitro-2-tetramethylenedithiocarbamoylbenzamide] | 50 µg/mL (≈ 140 µM) | 12.5 µg/mL (≈ 35.1 µM) | 6.25 µg/mL (≈ 17.5 µM) | 0.4 µg/mL (≈ 1.12 µM) | 25 µg/mL (≈ 70.1 µM) | 6.25 µg/mL (≈ 17.5 µM) |
| O=[N+]([O-])c1cnc(SC(=S)N2CCCC2)c([N+](=O)[O-])c1 [Subst. Nr. 18, 3,5-dinitro-2-tetramethylenedithiocarbamoylpyridine] | 6.25 µg/mL (≈ 19.9 µM) | 12.5 µg/mL (≈ 39.8 µM) | 3.12 µg/mL (≈ 9.93 µM) | 3.12 µg/mL (≈ 9.93 µM) | 1.56 µg/mL (≈ 4.96 µM) | 3.12 µg/mL (≈ 9.93 µM) |
